Test results from ChEMBL document CHEMBL4325844, “Development of 2-amino-4-phenylthiazole analogues to disrupt myeloid differentiation factor 88 and prevent inflammatory responses in acute lung injury” (Eur J Med Chem, 2019).
Activity calls are given as the source filed them. The rule behind the calls is not given here.

Assays:
[1] = biological target: Myeloid differentiation primary response protein MyD88 (Mus musculus) (UniProt P22366); assay: Inhibition of MyD88 in ICR mouse primary peritoneal macrophages assessed as reduction in LPS-induced JNK phosphorylation at 20 uM preincubated for 30 mins followed by LPS-stimulation and measured after 20 mins by Western blot analysis
Myeloid differentiation primary response protein MyD88 (Mus musculus), sequence (P22366 whole entry, the tested form may be a part): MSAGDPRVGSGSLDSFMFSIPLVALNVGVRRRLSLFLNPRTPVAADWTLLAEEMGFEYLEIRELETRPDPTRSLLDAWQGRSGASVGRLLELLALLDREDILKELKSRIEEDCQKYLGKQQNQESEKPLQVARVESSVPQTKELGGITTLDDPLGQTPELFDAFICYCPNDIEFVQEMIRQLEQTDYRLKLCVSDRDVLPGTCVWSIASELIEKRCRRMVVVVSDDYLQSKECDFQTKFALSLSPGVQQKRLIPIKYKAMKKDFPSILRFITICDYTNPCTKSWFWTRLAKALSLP

[2] = biological target: T1, Myeloid differentiation primary response protein MyD88 (Homo sapiens, UniProt Q99836); assay: Binding affinity to recombinant human MyD88 TIR domain (157 to 296 residues) expressed in Escherichia coli BL21(DE3) by surface plasmon resonance analysis
T1 sequence (Q99836 whole entry, the tested form may be a part): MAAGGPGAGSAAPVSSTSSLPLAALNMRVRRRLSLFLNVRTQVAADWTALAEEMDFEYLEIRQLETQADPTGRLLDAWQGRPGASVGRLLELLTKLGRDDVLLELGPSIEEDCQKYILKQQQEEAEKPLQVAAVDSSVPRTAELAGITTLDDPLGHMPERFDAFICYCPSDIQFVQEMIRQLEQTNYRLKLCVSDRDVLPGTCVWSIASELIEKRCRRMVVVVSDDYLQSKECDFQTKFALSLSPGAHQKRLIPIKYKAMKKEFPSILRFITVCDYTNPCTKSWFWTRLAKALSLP

[3] = test system: Mus musculus; assay: Antiinflammatory activity in LPS-induced C57/BL6 mouse model of acute lung injury assessed as reduction in pulmonary congestion at 10 mg/kg, ip pretreated for 30 mins followed by LPS challenge measured after 6 hrs by hematoxylin and eosin staining based microscopic analysis; format: functional, organism-based
[4] = test system: Peritoneal macrophage; assay: Antiinflammatory activity in ICR mouse primary peritoneal macrophages assessed as inhibition of LPS-induced IL-6 production at 20 uM preincubated for 60 mins followed by LPS stimulation and measured after 24 hrs by ELISA relative to control; format: functional
[5] = test system: Peritoneal macrophage; assay: Antiinflammatory activity in ICR mouse primary peritoneal macrophages assessed as inhibition of LPS-induced TNFalpha production at 20 uM preincubated for 60 mins followed by LPS stimulation and measured after 24 hrs by ELISA relative to control; format: functional
[6] = test system: Mus musculus; assay: Antiinflammatory activity in LPS-induced C57/BL6 mouse model of acute lung injury assessed as reduction in macrophage inflammatory infiltration at 10 mg/kg, ip pretreated for 30 mins followed by LPS challenge measured after 6 hrs by F4/80/hematoxylin staining based microscopic analysis; format: functional, organism-based
[7] = biological target: T1, Myeloid differentiation primary response protein MyD88; assay: Inhibition of LPS-induced HA-tagged MyD88 (unknown origin) interaction with FLAG-tagged MyD88 (unknown origin) expressed in HEK293 cells at 20 uM after 48 hrs by co-immunoprecipitation method; format: cell-based
[8] = biological target: Myeloid differentiation primary response protein MyD88 (Mus musculus) (UniProt P22366); assay: Inhibition of MyD88 in ICR mouse primary peritoneal macrophages assessed as reduction in LPS-induced p38 MAPK phosphorylation at 20 uM preincubated for 30 mins followed by LPS-stimulation and measured after 20 mins by Western blot analysis
[9] = test system: Peritoneal macrophage; assay: Antiinflammatory activity in ICR mouse primary peritoneal macrophages assessed as inhibition of LPS-induced IL-6 production preincubated for 2 hrs followed by LPS stimulation and measured after 22 hrs by ELISA; format: functional, cell-based
[10] = biological target: Myeloid differentiation primary response protein MyD88 (Mus musculus) (UniProt P22366); assay: Inhibition of MyD88 in ICR mouse primary peritoneal macrophages assessed as reduction in LPS-induced NFkappaB translocation at 20 uM preincubated for 30 mins followed by LPS-stimulation and measured after 20 mins by immunofluorescence microscopic analysis
[11] = test system: Mus musculus; assay: Antiinflammatory activity in LPS-induced C57/BL6 mouse model of acute lung injury assessed as reduction in interstitial edema at 10 mg/kg, ip pretreated for 30 mins followed by LPS challenge measured after 6 hrs by hematoxylin and eosin staining based microscopic analysis; format: functional, organism-based
[12] = test system: Mus musculus; assay: Antiinflammatory activity in LPS-induced C57/BL6 mouse model of acute lung injury assessed as reduction in IL1beta mRNA expression at 10 mg/kg, ip pretreated for 30 mins followed by LPS challenge measured after 6 hrs by SYBR green dye based RT-qPCR analysis; format: functional, organism-based
[13] = test system: Mus musculus; assay: Antiinflammatory activity in LPS-induced C57/BL6 mouse model of acute lung injury assessed as reduction in IL6 level in serum at 10 mg/kg, ip pretreated for 30 mins followed by LPS challenge measured after 6 hrs by ELISA; format: functional, organism-based
[14] = test system: Mus musculus; assay: Antiinflammatory activity in LPS-induced C57/BL6 mouse model of acute lung injury assessed as reduction in ICAM1 mRNA expression at 10 mg/kg, ip pretreated for 30 mins followed by LPS challenge measured after 6 hrs by SYBR green dye based RT-qPCR analysis; format: functional, organism-based
[15] = Cytotoxicity against rat NRK cells assessed as cell viability at 20 uM after 24 hrs by MTT assay relative to control; format: cell-based; conditions: read-out: Activity
[16] = test system: Mus musculus; assay: Antiinflammatory activity in LPS-induced C57/BL6 mouse model of acute lung injury assessed as reduction in neutrophil inflammatory infiltration at 10 mg/kg, ip pretreated for 30 mins followed by LPS challenge measured after 6 hrs by F4/80/hematoxylin staining based microscopic analysis; format: functional, organism-based
[17] = test system: Peritoneal macrophage; assay: Potency index, ratio of TJ-M2010-5 IC50 to test compound IC50 for inhibition of LPS-induced TNFalpha production in ICR mouse primary peritoneal macrophages; format: functional
[18] = test system: Mus musculus; assay: Antiinflammatory activity in LPS-induced C57/BL6 mouse model of acute lung injury assessed as reduction in IL6 level in BALF at 10 mg/kg, ip pretreated for 30 mins followed by LPS challenge measured after 6 hrs by ELISA; format: functional, organism-based
[19] = biological target: Myeloid differentiation primary response protein MyD88 (Mus musculus) (UniProt P22366); assay: Inhibition of MyD88 in ICR mouse primary peritoneal macrophages assessed as reduction in LPS-induced ERK phosphorylation at 20 uM preincubated for 30 mins followed by LPS-stimulation and measured after 20 mins by Western blot analysis
[20] = test system: Mus musculus; assay: Antiinflammatory activity in LPS-induced C57/BL6 mouse model of acute lung injury assessed as reduction in thicken alveolar septa at 10 mg/kg, ip pretreated for 30 mins followed by LPS challenge measured after 6 hrs by hematoxylin and eosin staining based microscopic analysis; format: functional, organism-based
[21] = test system: Mus musculus; assay: Antiinflammatory activity in LPS-induced C57/BL6 mouse model of acute lung injury assessed as reduction in TNFalpha mRNA expression at 10 mg/kg, ip pretreated for 30 mins followed by LPS challenge measured after 6 hrs by SYBR green dye based RT-qPCR analysis; format: functional, organism-based
[22] = Cytotoxicity against ICR mouse primary peritoneal macrophages assessed as cell viability at 20 uM after 24 hrs by MTT assay relative to control; format: cell-based, Peritoneal macrophage; conditions: read-out: Activity
[23] = biological target: Toll-like receptor 4/Ly96 (Mus musculus) (UniProt Q9QUK6+Q9JHF9); assay: Inhibition of TLR4/MD2 interaction in LPS-induced mouse RAW264.7 at 20 uM measured after 30 mins by co-immunoprecipitation method; format: cell-based
[24] = test system: Peritoneal macrophage; assay: Antiinflammatory activity in ICR mouse primary peritoneal macrophages assessed as inhibition of LPS-induced TNFalpha production preincubated for 2 hrs followed by LPS stimulation and measured after 22 hrs by ELISA; format: functional, cell-based
[25] = test system: Mus musculus; assay: Antiinflammatory activity in LPS-induced C57/BL6 mouse model of acute lung injury assessed as reduction in lung tissue destruction at 10 mg/kg, ip pretreated for 30 mins followed by LPS challenge measured after 6 hrs by hematoxylin and eosin staining based microscopic analysis; format: functional, organism-based
[26] = biological target: Myeloid differentiation primary response protein MyD88 (Mus musculus) (UniProt P22366); assay: Inhibition of MyD88 in mouse RAW264.7 cells expressing EGFP-fused NFkappaB at 10 uM preincubated for 30 mins followed by LPS-stimulation and measured after 1 hr by fluorescence assay; format: cell-based
[27] = test system: Mus musculus; assay: Antiinflammatory activity in LPS-induced C57/BL6 mouse model of acute lung injury assessed as reduction in inflammatory infiltration at 10 mg/kg, ip pretreated for 30 mins followed by LPS challenge measured after 6 hrs by hematoxylin and eosin staining based microscopic analysis; format: functional, organism-based

inhibition [1]: Active
Activity [2]: Dose-dependent effect
Ka [2]: 4830 M⁻¹ s⁻¹
Kd [2]: 34500 nM
Kdiss [2]: 0.167 s⁻¹
inhibition [7]: Active
inhibition [8]: Active
IC50 [9]: 2520 nM
inhibition [10]: Active
inhibition [19]: Active
inhibition [23]: inactive
IC50 [24]: 890 nM
inhibition [26]: Active
SMILES: COc1cc(-c2csc(NC(=O)CCN3CCN(Cc4cccc([N+](=O)[O-])c4)CC3)n2)ccc1O
Activity [3]: Active
inhibition at 20 µM [4]: 95%
inhibition at 20 µM [5]: 90.4%
Activity [6]: Active
inhibition [9]: Dose-dependent effect
Activity [11]: Active
Activity [12]: Active
Activity [13]: Active
Activity [14]: Active
viability at 24 h, 20 µM [15]: > 80%
Activity [16]: Active
Ratio IC50 [17]: 13
Activity [18]: Active
Activity [20]: Active
Activity [21]: Active
viability at 24 h, 20 µM [22]: > 80%
inhibition [24]: Dose-dependent effect
Activity [25]: Active
Activity [27]: Active
